# How the values were obtained:
# V. harveyi LuxS- strain = assay type: cell-based, Vibrio harveyi
# [1] = system: V. harveyi LuxP+, LuxS+ reporter strain (AI-2 detection system); test: Bioluminescence (light production) bioassay in LuxP+, LuxS+ reporter strain that produces its own AI-2; assay type: cell-based, Vibrio harveyi
Compound,"response to autoinducer (V. harveyi LuxS- strain; latter strains (incl. LuxS-), same experimental conditions)",induction of light production ([1]; addition of 1 mM boric acid during delay period),induction of light production (fold) ([1]; boric acid concentrations as low as 10 μM),effect on bioluminescence (V. harveyi LuxS- strain; LuxS- strain)
C[C@@H](O)CC(=O)N[C@H]1CCOC1=O [AI-1],wild-type responses,,,
OB(O)O [Boric acid],,substantial induction,10,no effect

# — patent US7208612B2 (priority 2001, dated 2007)
